Where two headings read alike, the source gives them in different places.
Legend:
Format in all cases: cell-based
[1] = test system: IL-17FF; assay: IL-17FF production by PHA-stimulated human PBMC (human IL-17F ELI-Pair); conditions: 48 hours
Outline: (§1)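 Inhibition of PHA-driven (2 μg/ml) cytokine release from human PBMC at 1×10^5 cells/well, 48 h compound exposure. IC50 from semilog titrations.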

[2] = test system: IFN-γ; assay: IFN-γ production by PHA-stimulated human PBMC (OptEIA human IFN-g ELISA); conditions: 48 hours
Outline: as §1

[3] = test system: IL-17AA/AF; assay: IL-17AA/AF production by PHA-stimulated human PBMC (Luminex BioPlex assay); conditions: 48 hours, column A, values marked with *, read-out: IC50 (IL-17AA), values marked with * determined by Luminex assay on IL17AA/AF
Description: (§2) Analysis of Proliferation of and Cytokine Production by Human PBMC Stimulated with PHA
(§3) Peripheral blood mononuclear cells (PBMC) from healthy human donors were purified using Accuspin™ System-Histopaque-1077 (Sigma) according to the protocol recommended by the manufacturer. Purified PBMC were then washed twice with phosphate-buffered saline (PBS) and resuspended in RPMI1640 culture medium supplemented with 10% dialyzed heat inactivated fetal calf serum, 1.5 mM L-glutamine, 100 U penicillin/ml, and […] (all from PAN Biotech, Aidenbach, Germany). For stimulation, PBMC were seeded at 1×10^5 cells/well, activated with 2 μg/ml phytohaemagglutinin (PHA, Sigma) and incubated with the test compounds for 48 hours. IL-17A, IL-17F and INF-γ were then determined in the culture supernatant using a Luminex BioPlex system, following the manufacturer's instructions (BioRad, Munich, Germany). For screening, compounds were used at 10, 1, 0.1 and 0.01 μM. To determine the IC50, compounds were titrated semilogarithmically.
(§4) Cytokines were determined in the aforementioned culture supernatant using the following methods: IL-17AA/AF was measured using the Luminex BioPlex system (BioRad, Munich, Germany); IL-17AA using the human homodimer IL-17A ELISA Ready Set Go Kit from eBioscience (Frankfurt, Germany); IL-17FF using the human IL-17F ELI-Pair from Hölzel DiagnosticaGmBH (Köln, Germany); and IFN-γ using the OptEIA human IFN-g ELISA from BD Bioscience (Heidelberg, Germany), all following the manufacturer's instructions.

[4] = test system: PBMC from healthy human donors; assay: T cell proliferation assay (PHA-stimulated human PBMC, BrdU ELISA); conditions: 48 hours
Outline: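 Proliferation was quantified by BrdU ELISA 48 hours after starting culture of 1×10⁵ human PBMC per well with test compound and 2 μg/ml phytohaemagglutinin. Cells came from healthy donors via Ficoll separation and were kept in RPMI1640 with 10% dialysed heat-inactivated FCS.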

[5] = test system: IL-17AA; assay: IL-17AA production by PHA-stimulated human PBMC (human homodimer IL-17A ELISA); conditions: 48 hours
Description: as §2, §3, §4

[6] = PHA-stimulated human PBMC, column B, read-out: IC50 (IL-17FF)
[7] = PHA-stimulated human PBMC, column C, read-out: IC50 (IFNγ)
[8] = PHA-stimulated human PBMC, column D, read-out: IC50 (Tcell proliferation)
[9] = PHA-stimulated human PBMC, column A, values without *, read-out: IC50 (IL-17AA)
[10] = human PBMC, 2 μg/ml PHA, read-out: B: IC50 (IL-17FF)
[11] = human PBMC, 2 μg/ml PHA, read-out: A: IC50 (IL-17AA)
[12] = human PBMC, 2 μg/ml PHA, read-out: C: IC50 (IFNγ)
[13] = human PBMC, 2 μg/ml PHA, read-out: D: IC50 (Tcell proliferation)

Structure (SMILES)	IC50 [1, 6] [nM]	IC50 [2, 7] [nM]	IC50 [3] [nM]	IC50 [5, 9] [nM]	IC50 [1, 10] [nM]	IC50 [5, 11] [nM]	IC50 [2, 12] [nM]	IC50 [4, 8] [nM]	IC50 [4, 13] [nM]
Fc1cccc(Cl)c1-c1noc(-c2cnn(-c3cccc(Cl)c3)c2C(F)(F)F)c1-c1nccs1 [Example 5, 3-(2-chloro-6-fluorophenyl)-5-(1-(3-chlorophenyl)-5-(trifluoromethyl)-1H-pyrazol-4-yl)-4-(thiazol-2-yl)isoxazole]	–	–	–	–	< 10	< 10	< 10	–	< 10
COC(=O)c1c(-c2c(F)cccc2Cl)noc1-c1cnn(-c2ccccc2)c1C(F)(F)F [Example I-48, methyl 3-(2-chloro-6-fluorophenyl)-5-(1-phenyl-5-(trifluomethyl)1H-pyrazol-4-yl)isoxazole-4-carboxylate]	10 to 100	10 to 100	–	100 to 1000	–	–	–	10 to 100	–
COC(=O)c1c(-c2c(F)cccc2Cl)noc1-c1cnn(-c2cccc(C#N)c2)c1C(F)(F)F [Example I-12, methyl 3-(2-chloro-6-fluorophenyl)-5-(1-(3-cyanophenyl)-5-(trifluoromethyl)-1H-pyrazol-4-yl)isoxazole-4-carboxylate]	10 to 100	10 to 100	–	100 to 1000	–	–	–	10 to 100	–
CSC(=O)c1c(-c2c(F)cccc2Cl)noc1-c1cnn(-c2cccc(Cl)c2)c1C(F)(F)F [Example I-126, S-methyl 3-(2-chloro-6-fluorophenyl)-5-(1-(3-chlorophenyl)-5-(trifluoromethyl)-1H-pyrazol-4-yl)isoxazole-4-carbothioate]	< 10	< 10	10 to 100	–	–	–	–	< 10	–
CNC(=O)c1c(-c2c(F)cccc2Cl)noc1-c1cnn(-c2ccc(F)cc2F)c1C(F)(F)F [Example I-57, 3-(2-chloro-6-fluorophenyl)-5-(1-(2,4-difluorophenyl)-5-(trifluoromethyl)-1H-pyrazol-4-yl)-N-methylisoxazole-4-carboxamide]	1000 to 10000	1000 to 10000	–	1000 to 10000	–	–	–	1000 to 10000	–
Fc1ccccc1-n1ncc(-c2onc(-c3c(F)cccc3Cl)c2-c2ccoc2)c1C(F)(F)F [Example B-9, 3-(2-chloro-6-fluorophenyl)-5-(1-(2-fluorophenyl)-5-(trifluoromethyl)-1H-pyrazol-4-yl)-4-(furan-3-yl)isoxazole]	–	–	–	–	10 to 100	100 to 1000	100 to 1000	–	100 to 1000

Further lines, with some results ahead:

IC50 [1, 6] [nM]	IC50 [2, 7] [nM]	IC50 [3] [nM]	IC50 [5, 9] [nM]	IC50 [1, 10] [nM]	IC50 [5, 11] [nM]	IC50 [2, 12] [nM]	Structure (SMILES)	IC50 [4, 8] [nM]	IC50 [4, 13] [nM]
< 10	< 10	< 10	–	–	–	–	CSC(=O)c1c(-c2c(F)cccc2Cl)noc1-c1cnn(-c2cccc(F)c2)c1C(F)(F)F [Example I-128, S-methyl 3-(2-chloro-6-fluorophenyl)-5-(1-(3-fluorophenyl)-5-(trifluoromethyl)-1H-pyrazol-4-yl)isoxazole-4-carbothioate]	< 10	–
< 10	< 10	< 10	–	–	–	–	COC(=O)c1c(-c2c(F)cccc2Cl)noc1-c1cnn(-c2cccc(F)c2)c1C(F)(F)F [Example I-5, methyl 3-(2-chloro-6-fluorophenyl)-5-(1-(3-fluorophenyl)-5-(trifluoromethyl)-1H-pyrazol-4-yl)isoxazole-4-carboxylate]	< 10	–
10 to 100	10 to 100	100 to 1000	–	–	–	–	CNC(=O)c1c(-c2c(F)cccc2Cl)noc1-c1cnn(-c2cccc(F)c2)c1C(F)(F)F [Example I-62, 3-(2-chloro-6-fluorophenyl)-5-(1-(3-fluorophenyl)-5-(trifluoromethyl)-1H-pyrazol-4-yl)-N-methylisoxazole-4-carboxamide]	10 to 100	–
10 to 100	10 to 100	–	10 to 100	–	–	–	CCOC(=O)c1c(-c2c(F)cccc2Cl)noc1-c1cnn(-c2cccc(NC(C)=O)c2)c1C(F)(F)F [IB-70, ethyl 5-(1-(3-acetamidophenyl)-5-(trifluoromethyl)-1H-pyrazol-4-yl)-3-(2-chloro-6-fluorophenyl)isoxazole-4-carboxylate]	10 to 100	–
–	–	–	–	10 to 100	100 to 1000	10 to 100	Cc1nnc(-c2c(-c3c(F)cccc3Cl)noc2-c2cnn(-c3ccccc3F)c2C(F)(F)F)s1 [Example 12, 3-(2-chloro-6-fluorophenyl)-5-(1-(2-fluorophenyl)-5-(trifluoromethyl)-1H-pyrazol-4-yl)-4-(5-methyl-1,3,4-thiadiazol-2-yl)isoxazole]	–	100 to 1000
100 to 1000	100 to 1000	–	1000 to 10000	–	–	–	O=C(NC1CCCCC1)c1c(-c2c(F)cccc2Cl)noc1-c1cnn(-c2ccccc2F)c1C(F)(F)F [Example I-18, 3-(2-chloro-6-fluorophenyl)-N-cyclohexyl-5-(1-(2-fluorophenyl)-5-(trifluoromethyl)-1H-pyrazol-4-yl)isoxazole-4-carboxamide]	1000 to 10000	–
10 to 100	100 to 1000	–	100 to 1000	–	–	–	CON(C)C(=O)c1c(-c2c(F)cccc2Cl)noc1-c1cnn(-c2cccc(Cl)c2)c1C(F)(F)F [Example I-63, 3-(2-chloro-6-fluorophenyl)-5-(1-(3-chlorophenyl)-5-(trifluoromethyl)-1H-pyrazol-4-yl)-N-methoxy-N-methylisoxazole-4-carboxamide]	100 to 1000	–
